# According to US20070191336A1 (priority 2003, published 2007):
# Molecular target: T1, phospho p-38 alpha kinase (Homo sapiens, UniProt Q16539)
# T1 construct: purchased Panvera
# Assay: P-38 alpha kinase assay (spectrophotometric, pyruvate kinase/lactate dehydrogenase coupled)
# Type: biochemical
# Conditions: Table 3; rates from […] to 2 h time frame
# T1 sequence (Q16539 whole entry): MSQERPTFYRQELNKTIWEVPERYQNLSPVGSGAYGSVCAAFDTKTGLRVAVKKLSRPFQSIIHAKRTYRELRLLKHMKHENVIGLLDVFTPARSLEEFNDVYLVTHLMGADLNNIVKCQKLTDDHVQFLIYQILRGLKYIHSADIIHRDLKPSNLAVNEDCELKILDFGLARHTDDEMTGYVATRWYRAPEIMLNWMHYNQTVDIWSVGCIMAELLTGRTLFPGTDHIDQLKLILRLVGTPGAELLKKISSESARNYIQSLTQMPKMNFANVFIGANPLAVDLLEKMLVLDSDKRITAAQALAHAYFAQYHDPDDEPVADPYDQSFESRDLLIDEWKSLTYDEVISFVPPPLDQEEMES
row,IC50 [nM],SMILES
1,1100,"O=C(Nc1cccc(C(F)(F)F)c1)Nc1cc(-c2ccccc2)nn1-c1cccc(CO)c1 [Example 457, 1-{3-phenyl-1-[3-(hydroxymethyl)phenyl]-1H-pyrazol-5-yl}-3-(3-trifluoromethylphenyl)urea]"
2,1000,"COc1cccc(NC(=O)Nc2cc(-c3ccccc3)nn2-c2cccc(CO)c2)c1 [Example 458, 1-{3-phenyl-1-[3-(hydroxymethyl)phenyl]-1H-pyrazol-5-yl}-3-(3-methoxyphenyl)urea]"
3,20,"O=C(Nc1cccc(Cl)c1Cl)Nc1cc(-c2ccccc2)nn1-c1cccc(CO)c1 [Example 459, 1-{3-phenyl-1-[3-(hydroxymethyl)phenyl]-1H-pyrazol-5-yl}-3-(2,3-dichlorophenyl)urea]"
4,17,"CC(C)(C)c1cc(NC(=O)Nc2cccc3ccccc23)n(-c2ccc(CO)cc2)n1 [Example 461, 1-{3-t-butyl-1-[4-(hydroxymethyl)phenyl]-1H-pyrazol-5-yl}-3-(naphthalen-1-yl)urea]"
5,56,"CC(O)c1ccc(-n2nc(C(C)(C)C)cc2NC(=O)Nc2cccc3ccccc23)cc1 (stereo not shown) [Example 463, 1-{3-t-butyl-1-[4-(1-hydroxyethyl)phenyl]-1H-pyrazol-5-yl}-3-(naphthalen-1-yl)urea]"
6,19,"C#CC(O)c1ccc(-n2nc(C(C)(C)C)cc2NC(=O)Nc2cccc3ccccc23)cc1 (stereo not shown) [Example 464, 1-{3-t-butyl-1-[4-(1-hydroxyprop-2-ynyl)phenyl]-1H-pyrazol-5-yl}-3-(naphthalen-1-yl)urea]"
7,119,"CC(C)(C)c1cc(NC(=O)Nc2cccc(Cl)c2Cl)n(-c2ccc(C(C)(C)O)cc2)n1 [Example 467, 1-{3-t-butyl-1-[4-(2-hydroxypropan-2-yl)phenyl]-1H-pyrazol-5-yl}-3-(2,3-dichlorophenyl)urea]"
8,8.6,"CC(C)(C)c1cc(NC(=O)Nc2cccc(Cl)c2Cl)n(-c2ccc(C(=O)O)cc2)n1 [Example 468, 4-{3-t-butyl-5-[3-(2,3-dichlorophenyl)ureido]-1H-pyrazol-1-yl}benzoic acid]"
9,50,"CC(O)c1cccc(-n2nc(C(C)(C)C)cc2NC(=O)Nc2cccc3ccccc23)c1 (stereo not shown) [Example 472, 1-{3-t-butyl-1-[3-(1-hydroxyethyl)phenyl]-1H-pyrazol-5-yl}-3-(naphthalen-1yl)urea]"
10,4,"C#CC(O)c1cccc(-n2nc(C(C)(C)C)cc2NC(=O)Nc2cccc3ccccc23)c1 (stereo not shown) [Example 473, 1-{3-t-butyl-1-[3-(1-hydroxyprop-2-ynyl)phenyl]-1H-pyrazol-5-yl}-3-(naphthalen-1-yl)urea]"
11,380,"CCOC(=O)c1cccc(-n2nc(C(C)(C)C)cc2NC(=O)Nc2cccc(Cl)c2Cl)c1 [Example 474, ethyl 3-{3-t-butyl-5-[3-(2,3-dichlorophenyl)ureido]-1H-pyrazol-1-yl}benzoate]"
12,10,"CC(C)(C)c1cc(NC(=O)Nc2cccc(Cl)c2Cl)n(-c2cccc(CO)c2)n1 [Example 475, 1-[3-t-butyl-1-(3-hydroxymethyl-phenyl)-1H-pyrazol-5-yl]-3-(2,3-dichlorophenyl)-urea]"

# The next lines start with the compound.
row,SMILES,IC50 [nM]
1,"CCOC(=O)C(C)Cc1ccc(-n2nc(C(C)(C)C)cc2NC(=O)Nc2cccc3ccccc23)cc1 (stereo not shown) [Example 427, ethyl 3-(4-{3-t-butyl-5-[3-(naphthalen-1-yl)ureido]-1H-pyrazol-1-yl}phenyl)-2-methylpropanoate]",819
2,"CC(Cc1ccc(-n2nc(C(C)(C)C)cc2NC(=O)Nc2cccc3ccccc23)cc1)C(=O)O (stereo not shown) [Example 428, 3-(4-{3-t-butyl-5-[3-(naphthalen-1-yl)ureido]-1H-pyrazol-1-yl}phenyl)-2-methylpropanoic acid]",140
3,"CCOC(=O)C(C)Cc1ccc(-n2nc(C(C)(C)C)cc2NC(=O)Nc2ccc(Cl)cc2)cc1 (stereo not shown) [Example 429, ethyl 3-(4-{3-t-butyl-5-[3-(4-chlorophenyl)ureido]-1H-pyrazol-1-yl}phenyl)-2-methylpropanoate]",1070
4,"CC(Cc1ccc(-n2nc(C(C)(C)C)cc2NC(=O)Nc2ccc(Cl)cc2)cc1)C(=O)O (stereo not shown) [Example 430, 3-(4-{3-t-butyl-5-[3-(4-chlorophenyl)ureido]-1H-pyrazol-1-yl}phenyl)-2-methylpropanoic acid]",942
5,"O=C(Nc1ccc(Cl)cc1)Nc1cc(-c2ccccc2)nn1-c1ccc(CO)cc1 [Example 434, 1-(4-chlorophenyl)-3-{1-[4-(hydroxymethyl)phenyl]-3-phenyl-1H-pyrazol-5-yl}-urea]",1900
6,"CC(C)c1cc(NC(=O)Nc2ccc(Cl)cc2)n(-c2ccc(CO)cc2)n1 [Example 438, 1-(4-chlorophenyl)-3-{1-[4-(hydroxymethyl)phenyl]-3-isopropyl-1H-pyrazol-5-yl}-urea]",1300
7,CC(C)(O)c1cccc(-n2nc(C(F)(F)F)cc2NC(=O)Nc2cccc3ccccc23)c1 [Example 440],920
8,"O=C(Nc1ccc(Cl)cc1)Nc1cc(C(F)(F)F)nn1-c1ccc(CO)cc1 [Example 442, 1-(4-chlorophenyl)-3-{3-(trifluoromethyl)-1-[4-(hydroxyl-methyl)phenyl]-1H-pyrazol-5-yl}urea]",3010
9,"Cc1cc(NC(=O)Nc2cccc3ccccc23)n(-c2cccc(C(C)(C)O)c2)n1 [Example 444, 1-{1-[3-(2-hydroxypropan-2-yl)phenyl]-3-methyl-1H-pyrazol-5-yl}-3-(naphthalen-1-yl)urea]",5000
10,"O=C(Nc1cccc(Cl)c1)Nc1cc(-c2ccccc2)nn1-c1cccc(CO)c1 [Example 455, 1-{3-phenyl-1-[3-(hydroxymethyl)phenyl]-1H-pyrazol-5-yl}-3-(3-chlorophenyl)urea]",100
11,"O=C(Nc1cccc(Br)c1)Nc1cc(-c2ccccc2)nn1-c1cccc(CO)c1 [Example 456, 1-(3-bromophenyl)-3-{1-[3-(hydroxymethyl)phenyl]-3-phenyl-1H-pyrazol-5-yl}urea]",40
12,"CC(C)(C)c1cc(NC(=O)Nc2cccc(Cl)c2Cl)n(-c2ccc(CO)cc2)n1 [Example 466, 1-{3-t-butyl-1-[4-(hydroxymethyl)phenyl]-1H-pyrazol-5-yl}-3-(2,3-dichloro-phenyl)urea]",7

# Same assay, conditions: read-out: % Inhibition @ concentration, Table 3; at 0.1 uM
row,SMILES,inhibition at 0.1 µM [%]
1,"CC(C)c1cc(NC(=O)Nc2cccc3ccccc23)n(-c2cccc(C(C)(C)O)c2)n1 [Example 436, 1-{1-[3-(2-hydroxypropan-2-yl)phenyl]-3-isopropyl-1H-pyrazol-5-yl}-3-(naphthalen-1-yl)urea]",16

# Same assay, conditions: read-out: % Inhibition @ concentration, Table 3; at 1 uM
row,SMILES,inhibition at 1 µM [%]
1,"CC(C)(O)c1cccc(-n2nc(-c3ccccc3)cc2NC(=O)Nc2cccc3ccccc23)c1 [Example 432, 1-{1-[3-(2-hydroxypropan-2-yl)phenyl]-3-phenyl-1H-pyrazol-5-yl}-3-(naphthalen-1-yl)urea]",9
2,"CC(C)c1cc(NC(=O)Nc2cccc3ccccc23)n(-c2cccc(C(C)(C)O)c2)n1 [Example 436, 1-{1-[3-(2-hydroxypropan-2-yl)phenyl]-3-isopropyl-1H-pyrazol-5-yl}-3-(naphthalen-1-yl)urea]",41
3,"Cc1cc(NC(=O)Nc2cccc(Cl)c2Cl)n(-c2ccc(CO)cc2)n1 [Example 450, 1-(2,3-dichlorophenyl)-3-{1-[4-(hydroxymethyl)phenyl]-3-methyl-1H pyrazol-5-yl)urea]",89
4,"Cc1cc(NC(=O)Nc2cccc3ccccc23)n(-c2ccc(C(O)C(F)(F)F)cc2)n1 (stereo not shown) [Example 451, 1-{3-methyl-1-[4-(2,2,2-trifluoro-1-hydroxyethyl)phenyl]-1H-pyrazol-5-yl}-3-(naphthalen-1-yl)urea]",3

# Same assay, conditions: read-out: % Inhibition @ concentration, Table 3; at 10 uM
row,SMILES,inhibition at 10 µM [%]
1,"CC(C)(O)c1cccc(-n2nc(-c3ccccc3)cc2NC(=O)Nc2cccc3ccccc23)c1 [Example 432, 1-{1-[3-(2-hydroxypropan-2-yl)phenyl]-3-phenyl-1H-pyrazol-5-yl}-3-(naphthalen-1-yl)urea]",24
2,"Cc1cc(NC(=O)Nc2cccc(Cl)c2Cl)n(-c2ccc(CO)cc2)n1 [Example 450, 1-(2,3-dichlorophenyl)-3-{1-[4-(hydroxymethyl)phenyl]-3-methyl-1H pyrazol-5-yl)urea]",192
